Source: paper PMC7413254 (Nature Communications, 2020)

How the values were obtained:
non-expressing oocytes [1] = assay: cells; assay type: cell-based, Xenopus laevis; details: non-expressing oocytes, total [3H]CQ transport, normalised to the oocyte type control
How it was run: (§1)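 ND96, pH 5.5, 1.5 h, 27.5 °C; uptake direction acidic outside → oocyte cytosol, mimicking efflux from digestive vacuole. Ice-cold wash stop, 10% SDS lysis, scintillation counting. Ten oocytes/treatment, ≥4 independent experiments.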

PfCRT^3D7 [2] = target: T1, PfCRT^3D7 (Plasmodium falciparum, UniProt Q8IBZ9); assay: cell-based; assay type: cell-based; details: PfCRT3D7 oocytes, total [3H]CQ transport, normalised to the oocyte type control
How it was run: as §1

PfCRT^Dd2 [3] = target: T2, PfCRT^Dd2 (Plasmodium falciparum, UniProt Q9N623, A220S/I356T/K76T/M74I/N326S/N75E/Q271E/R371I); assay: [3H]CQ uptake into Xenopus oocytes, cis-inhibition by unlabelled solute; assay type: cell-based; details: PfCRTDd2 oocytes, background [3H]CQ accumulation subtracted, normalised to oocyte type control
How it was run: as §1

PfCRT^Ecu1110 [4] = target: T3, PfCRT^Ecu1110 (Plasmodium falciparum, UniProt Q9N623, A220S/I356L/K76T/N326D); assay: as above; assay type: cell-based; details: for Uptake of [3H]CQ (% PfCRTEcu1110 control), cis-inhibition / PfCRT-mediated [3H]CQ transport, cis-inhibition (% PfCRTEcu1110 control): PfCRTEcu1110 oocytes; for Uptake of [3H]CQ (% PfCRTEcu1110 control), cis-inhibition: total [3H]CQ transport, normalised to the oocyte type control; for PfCRT-mediated [3H]CQ transport, cis-inhibition (% PfCRTEcu1110 control): background [3H]CQ accumulation subtracted, normalised to oocyte type control; for [3H]CQ transport (% PfCRTEcu1110 control), cis-inhibition, PfCRTEcu1110: PfCRT-mediated component (background subtracted), sheet title says normalised to PfCRTDd2 control, mean ± SEM, SEM
How it was run: as §1

non-expressing oocytes [5] = assay type: cell-based, Xenopus laevis; details: non-expressing oocytes; [test solute]i = 45 mM (30 mM for some solutes due to solubility); total [3H]CQ transport, normalised to the oocyte type control
How it was run: (§2)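 Oocytes (ten per treatment, ≥4 independent frogs/days) were preloaded by injecting VF-6 in 25 nL ND96 at pH 5.0, 5.5, 6.0 or 7.0, or Na^+-free choline buffer, then uptake run 1.5 h, 27.5 °C, ND96 pH 5.5 by default. Internal concentrations assumed ~400 nL oocyte volume.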

PfCRT^3D7 [6] = target: T1, PfCRT^3D7; assay: cell-based; assay type: cell-based; details: PfCRT3D7 oocytes; for Uptake of [3H]CQ (% PfCRT3D7 control), trans-stimulation: total [3H]CQ transport, normalised to the oocyte type control; for PfCRT-mediated [3H]CQ transport, trans-stimulation (% PfCRT3D7 control): normalised to oocyte type control
How it was run: as §2

PfCRT^Dd2 [7] = target: T2, PfCRT^Dd2; assay: cell-based; assay type: cell-based; details: for Uptake of [3H]CQ (% PfCRTDd2 control), trans-stimulation / PfCRT-mediated [3H]CQ transport, trans-stimulation (% PfCRTDd2 control): PfCRTDd2 oocytes; for Uptake of [3H]CQ (% PfCRTDd2 control), trans-stimulation: total [3H]CQ transport, normalised to the oocyte type control; for PfCRT-mediated [3H]CQ transport, trans-stimulation (% PfCRTDd2 control): normalised to oocyte type control; for [3H]CQ transport (% PfCRTDd2 control), trans-stimulation, PfCRTDd2: PfCRT-mediated component (background subtracted), mean ± SEM, SEM
How it was run: as §2

PfCRT^Ecu1110 [8] = target: T3, PfCRT^Ecu1110; assay: cell-based; assay type: cell-based; details: for Uptake of [3H]CQ (% PfCRTEcu1110 control), trans-stimulation / PfCRT-mediated [3H]CQ transport, trans-stimulation (% PfCRTEcu1110 control): PfCRTEcu1110 oocytes; for Uptake of [3H]CQ (% PfCRTEcu1110 control), trans-stimulation: total [3H]CQ transport, normalised to the oocyte type control; for PfCRT-mediated [3H]CQ transport, trans-stimulation (% PfCRTEcu1110 control): normalised to oocyte type control; for [3H]CQ transport (% PfCRTDd2 control), trans-stimulation, PfCRTEcu1110: PfCRT-mediated component (background subtracted), sheet title says normalised to PfCRTDd2 control, mean ± SEM, SEM
How it was run: as §2

PfNT1 = target: T4, PfNT1 (Plasmodium falciparum, UniProt Q8IDM6); assay: cell-based; assay type: cell-based; details: PfNT1 oocytes, total [3H]CQ transport, normalised to the oocyte type control
T4 construct: expressed in transfected cells; host or cells: Xenopus laevis oocytes (stage V-VI), cRNA-injected
How it was run: as §2

[9] = [test solute]i = 45 mM (30 mM for some solutes due to solubility)
[10] = [test solute]i = 5 mM (intracellular)
[11] = [test solute]i = 45 mM (intracellular; 30 mM for some solutes due to solubility)
[12] = [test solute]i = 5 mM (injected)

T2 sequence (Q9N623 whole entry A220S/I356T/K76T/M74I/N326S/N75E/Q271E/R371I): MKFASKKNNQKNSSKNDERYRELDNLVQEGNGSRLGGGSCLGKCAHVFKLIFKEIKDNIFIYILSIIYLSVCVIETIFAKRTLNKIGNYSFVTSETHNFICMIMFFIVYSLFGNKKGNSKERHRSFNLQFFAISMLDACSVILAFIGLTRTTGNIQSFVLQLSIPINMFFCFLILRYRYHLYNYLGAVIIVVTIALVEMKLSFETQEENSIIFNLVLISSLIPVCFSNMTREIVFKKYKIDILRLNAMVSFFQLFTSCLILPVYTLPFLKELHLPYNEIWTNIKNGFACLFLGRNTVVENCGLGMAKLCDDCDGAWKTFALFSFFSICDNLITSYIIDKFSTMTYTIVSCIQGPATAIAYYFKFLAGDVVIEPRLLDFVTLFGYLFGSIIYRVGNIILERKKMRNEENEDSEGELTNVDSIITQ
T1 sequence (Q8IBZ9 59-398): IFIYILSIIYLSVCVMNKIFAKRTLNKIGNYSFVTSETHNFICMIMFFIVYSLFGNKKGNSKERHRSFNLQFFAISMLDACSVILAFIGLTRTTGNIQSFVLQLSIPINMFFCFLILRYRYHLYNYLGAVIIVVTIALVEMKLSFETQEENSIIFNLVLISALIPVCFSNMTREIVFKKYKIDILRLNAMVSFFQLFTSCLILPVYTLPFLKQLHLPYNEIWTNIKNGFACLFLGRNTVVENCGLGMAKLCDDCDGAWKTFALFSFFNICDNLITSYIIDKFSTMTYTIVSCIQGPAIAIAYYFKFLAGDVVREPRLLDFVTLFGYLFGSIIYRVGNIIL
T3 sequence (Q9N623 whole entry A220S/I356L/K76T/N326D): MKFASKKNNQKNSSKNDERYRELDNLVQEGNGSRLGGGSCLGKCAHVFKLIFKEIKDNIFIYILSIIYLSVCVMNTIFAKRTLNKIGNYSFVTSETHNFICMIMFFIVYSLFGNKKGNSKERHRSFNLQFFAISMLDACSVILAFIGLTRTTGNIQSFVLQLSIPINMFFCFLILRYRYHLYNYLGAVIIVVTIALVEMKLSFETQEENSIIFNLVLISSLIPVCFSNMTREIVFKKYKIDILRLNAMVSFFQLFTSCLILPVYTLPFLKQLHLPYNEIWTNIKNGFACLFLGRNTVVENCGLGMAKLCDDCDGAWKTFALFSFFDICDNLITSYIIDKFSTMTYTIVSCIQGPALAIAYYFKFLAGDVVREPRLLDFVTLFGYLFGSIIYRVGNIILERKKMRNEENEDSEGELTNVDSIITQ
T4 sequence (Q8IDM6 whole entry): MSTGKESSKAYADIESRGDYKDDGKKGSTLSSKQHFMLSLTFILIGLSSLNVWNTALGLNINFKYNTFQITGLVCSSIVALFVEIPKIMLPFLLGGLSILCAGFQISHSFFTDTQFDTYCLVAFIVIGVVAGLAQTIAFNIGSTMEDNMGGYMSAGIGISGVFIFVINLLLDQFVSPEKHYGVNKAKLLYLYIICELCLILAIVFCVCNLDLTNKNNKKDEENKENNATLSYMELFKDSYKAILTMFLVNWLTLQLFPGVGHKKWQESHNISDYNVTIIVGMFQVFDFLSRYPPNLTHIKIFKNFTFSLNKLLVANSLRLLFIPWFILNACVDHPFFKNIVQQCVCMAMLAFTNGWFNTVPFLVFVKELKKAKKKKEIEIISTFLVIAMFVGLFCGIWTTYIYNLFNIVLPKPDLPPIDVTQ

PVQA [PA-4] was tested, and the “Uptake of [3H]CQ (% non-expressing oocyte control), cis-inhibition” value (non-expressing oocytes [1]; [test solute] = 0.5 mM) was 98 ± 3.0 % non-expressing oocyte control, the “Uptake of [3H]CQ (% non-expressing oocyte control), cis-inhibition” value (non-expressing oocytes [1]; [test solute] = 1 mM) was 100 ± 4.7 % non-expressing oocyte control and the “Uptake of [3H]CQ (% non-expressing oocyte control), cis-inhibition” value (non-expressing oocytes [1]; [test solute] = 2 mM) was 98 ± 3.9 % non-expressing oocyte control. The “Uptake of [3H]CQ (% PfCRT3D7 control), cis-inhibition” value (PfCRT^3D7 [2]; [test solute] = 0.5 mM) was 99 ± 5.3 % PfCRT3D7 control, the “Uptake of [3H]CQ (% PfCRT3D7 control), cis-inhibition” value (PfCRT^3D7 [2]; [test solute] = 1 mM) was 99 ± 4.8 % PfCRT3D7 control and the “Uptake of [3H]CQ (% PfCRT3D7 control), cis-inhibition” value (PfCRT^3D7 [2]; [test solute] = 2 mM) was 99 ± 5.7 % PfCRT3D7 control. The “PfCRT-mediated [3H]CQ transport, cis-inhibition (% PfCRTDd2 control)” value (PfCRT^Dd2 [3]; [test solute] = 0.5 mM) was 51 ± 3.0 % PfCRTDd2 control, the “PfCRT-mediated [3H]CQ transport, cis-inhibition (% PfCRTDd2 control)” value (PfCRT^Dd2 [3]; [test solute] = 1 mM) was 41 ± 2.9 % PfCRTDd2 control and the “PfCRT-mediated [3H]CQ transport, cis-inhibition (% PfCRTDd2 control)” value (PfCRT^Dd2 [3]; [test solute] = 2 mM) was 31 ± 1.2 % PfCRTDd2 control. The “Uptake of [3H]CQ (% PfCRTEcu1110 control), cis-inhibition” value (PfCRT^Ecu1110 [4]; [test solute] = 0.5 mM) was 65 ± 2.9 % PfCRTEcu1110 control, the “Uptake of [3H]CQ (% PfCRTEcu1110 control), cis-inhibition” value (PfCRT^Ecu1110 [4]; [test solute] = 1 mM) was 59 ± 3.6 % PfCRTEcu1110 control and the “Uptake of [3H]CQ (% PfCRTEcu1110 control), cis-inhibition” value (PfCRT^Ecu1110 [4]; [test solute] = 2 mM) was 43 ± 2.5 % PfCRTEcu1110 control. The “PfCRT-mediated [3H]CQ transport, cis-inhibition (% PfCRTEcu1110 control)” value (PfCRT^Ecu1110 [4]; [test solute] = 0.5 mM) was 61 ± 0.4 % PfCRTEcu1110 control, the “PfCRT-mediated [3H]CQ transport, cis-inhibition (% PfCRTEcu1110 control)” value (PfCRT^Ecu1110 [4]; [test solute] = 1 mM) was 52 ± 2.6 % PfCRTEcu1110 control and the “PfCRT-mediated [3H]CQ transport, cis-inhibition (% PfCRTEcu1110 control)” value (PfCRT^Ecu1110 [4]; [test solute] = 2 mM) was 39 ± 2.1 % PfCRTEcu1110 control. The “[3H]CQ transport (% PfCRTEcu1110 control), cis-inhibition, PfCRTEcu1110” value (PfCRT^Ecu1110 [4]; [test solute] = 1 mM) was 16 ± 0.1 % PfCRTEcu1110 control, the “[3H]CQ transport (% PfCRTEcu1110 control), cis-inhibition, PfCRTEcu1110” value (PfCRT^Ecu1110 [4]; [test solute] = 2 mM) was 12 ± 0.2 % PfCRTEcu1110 control and the “Uptake of [3H]CQ (% non-expressing oocyte control), trans-stimulation” value (non-expressing oocytes [5]) was 100 ± 2.6 % non-expressing oocyte control. For the same substance, the “Uptake of [3H]CQ (% PfCRT3D7 control), trans-stimulation” value (PfCRT^3D7 [6]; [test solute]i = 5 mM) was 130 ± 4.2 % PfCRT3D7 control, the “Uptake of [3H]CQ (% PfCRT3D7 control), trans-stimulation” value (PfCRT^3D7 [6]; [9]) was 149 ± 5.8 % PfCRT3D7 control and the “PfCRT-mediated [3H]CQ transport, trans-stimulation (% PfCRT3D7 control)” value (PfCRT^3D7 [6]; [10]) was 124 ± 3.2 % PfCRT3D7 control. The “PfCRT-mediated [3H]CQ transport, trans-stimulation (% PfCRT3D7 control)” value (PfCRT^3D7 [6]; [11]) was 141 ± 4.0 % PfCRT3D7 control, the “Uptake of [3H]CQ (% PfCRTDd2 control), trans-stimulation” value (PfCRT^Dd2 [7]; [test solute]i = 5 mM) was 98 ± 2.2 % PfCRTDd2 control and the “Uptake of [3H]CQ (% PfCRTDd2 control), trans-stimulation” value (PfCRT^Dd2 [7]; [9]) was 115 ± 1.1 % PfCRTDd2 control. For the same substance, the “PfCRT-mediated [3H]CQ transport, trans-stimulation (% PfCRTDd2 control)” value (PfCRT^Dd2 [7]; [10]) was 96 ± 3.2 % PfCRTDd2 control, the “PfCRT-mediated [3H]CQ transport, trans-stimulation (% PfCRTDd2 control)” value (PfCRT^Dd2 [7]; [11]) was 110 ± 0.9 % PfCRTDd2 control and the “[3H]CQ transport (% PfCRTDd2 control), trans-stimulation, PfCRTDd2” value (PfCRT^Dd2 [7]; [12]) was 96 ± 3.2 % PfCRTDd2 control. For the same substance, the “[3H]CQ transport (% PfCRTDd2 control), trans-stimulation, PfCRTDd2” value (PfCRT^Dd2 [7]; [9]) was 110 ± 0.9 % PfCRTDd2 control, the “Uptake of [3H]CQ (% PfCRTEcu1110 control), trans-stimulation” value (PfCRT^Ecu1110 [8]; [test solute]i = 5 mM) was 122 ± 3.0 % PfCRTEcu1110 control and the “Uptake of [3H]CQ (% PfCRTEcu1110 control), trans-stimulation” value (PfCRT^Ecu1110 [8]; [9]) was 133 ± 3.5 % PfCRTEcu1110 control. For the same substance, the “PfCRT-mediated [3H]CQ transport, trans-stimulation (% PfCRTEcu1110 control)” value (PfCRT^Ecu1110 [8]; [10]) was 117 ± 2.4 % PfCRTEcu1110 control, the “PfCRT-mediated [3H]CQ transport, trans-stimulation (% PfCRTEcu1110 control)” value (PfCRT^Ecu1110 [8]; [11]) was 127 ± 1.9 % PfCRTEcu1110 control and the “[3H]CQ transport (% PfCRTDd2 control), trans-stimulation, PfCRTEcu1110” value (PfCRT^Ecu1110 [8]; [12]) was 35 ± 1.3 % PfCRTEcu1110 control. For the same substance, the “[3H]CQ transport (% PfCRTDd2 control), trans-stimulation, PfCRTEcu1110” value (PfCRT^Ecu1110 [8]; [9]) was 38 ± 1.1 % PfCRTEcu1110 control, the “Uptake of [3H]CQ (% PfNT1 control), trans-stimulation” value (PfNT1; [test solute]i = 5 mM) was 96 ± 3.5 % PfNT1 control and the “Uptake of [3H]CQ (% PfNT1 control), trans-stimulation” value (PfNT1; [9]) was 98 ± 3.4 % PfNT1 control.
